Test results from patent US11331299B2, “Medicinal use of serrulatane diterpenes” (The University of Sydney, priority 2016, dated 2022).

Key:
USP 21 (h) = molecular target: T1, USP 21 (h) (Homo sapiens, UniProt Q9UK80); test: Epigenetic enzyme assay, Ubiquitin modifying enzymes; assay type: biochemical; conditions: 10 μM; read-out: % Inhibition of Control Values
T1 sequence (Q9UK80 1-565): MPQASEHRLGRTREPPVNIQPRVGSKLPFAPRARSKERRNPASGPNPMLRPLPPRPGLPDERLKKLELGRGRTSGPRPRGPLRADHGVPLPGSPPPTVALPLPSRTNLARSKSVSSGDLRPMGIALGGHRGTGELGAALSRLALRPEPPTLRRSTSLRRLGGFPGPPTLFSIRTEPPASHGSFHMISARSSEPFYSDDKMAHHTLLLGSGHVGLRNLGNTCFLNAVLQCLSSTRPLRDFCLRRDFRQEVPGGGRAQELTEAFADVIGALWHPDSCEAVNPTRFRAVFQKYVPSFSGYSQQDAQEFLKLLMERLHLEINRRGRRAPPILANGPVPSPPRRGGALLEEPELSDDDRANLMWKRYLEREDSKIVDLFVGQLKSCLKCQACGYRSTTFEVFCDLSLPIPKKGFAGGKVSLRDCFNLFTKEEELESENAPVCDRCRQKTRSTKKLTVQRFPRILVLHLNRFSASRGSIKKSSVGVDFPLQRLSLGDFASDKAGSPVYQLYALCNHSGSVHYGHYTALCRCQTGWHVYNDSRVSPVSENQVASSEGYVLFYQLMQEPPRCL

NSD1 (h) = NSD1 (h) (Homo sapiens, UniProt Q96L73); test: Epigenetic enzyme assay, Methyltransferases (MTs); assay type: biochemical; conditions: for inhibition at 10 µM: read-out: % Inhibition of Control Values
[1] = system: 43 cancer cell lines and one normal cell line; test: In vitro cell viability assay (intracellular ATP, 72 hour); assay type: cell-based; conditions: 10 μM
Sirtuin 7 (h) = molecular target: T2, Sirtuin 7 (h) (Homo sapiens, UniProt Q9NRC8); test: Epigenetic enzyme assay, Sirtuins; assay type: biochemical; conditions: 10 μM; read-out: % Inhibition of Control Values
T2 sequence (Q9NRC8 1-400): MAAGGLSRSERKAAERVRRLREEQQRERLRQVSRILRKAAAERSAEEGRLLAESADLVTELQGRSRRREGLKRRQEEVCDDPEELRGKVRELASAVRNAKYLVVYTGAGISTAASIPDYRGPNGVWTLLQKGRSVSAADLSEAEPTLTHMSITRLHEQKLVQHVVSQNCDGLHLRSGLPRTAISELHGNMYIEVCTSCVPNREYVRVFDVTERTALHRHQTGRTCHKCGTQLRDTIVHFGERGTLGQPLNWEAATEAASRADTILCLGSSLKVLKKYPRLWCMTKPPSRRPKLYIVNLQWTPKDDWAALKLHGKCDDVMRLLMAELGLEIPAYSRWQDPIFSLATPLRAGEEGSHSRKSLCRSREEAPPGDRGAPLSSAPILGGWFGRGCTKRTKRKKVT

[2] = system: Catechol-O-Methyl Transferase (COMT); test: Catechol-O-Methyl Transferase (COMT); assay type: biochemical, Porcine; conditions: 10 μM; assay year 2015
Protocol: The in vitro pharmacological studies were conducted by Eurofins PanLab (Taiwan) using the parameters shown in Table 13 with respect to appropriate literature references.

GCN5L2(h) = GCN5L2(h) (Homo sapiens, UniProt Q92830); test: Epigenetic enzyme assay, Histone acetyltransferases (HATs); assay type: biochemical; conditions: 10 μM; read-out: % Inhibition of Control Values
[3] = molecular target: Aurora B (h) (substrate histone H3 full length) (Homo sapiens, UniProt Q96GD4); test: Epigenetic enzyme assay, Kinases; assay type: biochemical; conditions: read-out: % Inhibition of Control Values
HDAC5 (h) = HDAC5 (h) (Homo sapiens, UniProt Q9UQL6); test: Epigenetic enzyme assay, Histone deacetylase (HDACs); assay type: biochemical; conditions: read-out: % Inhibition of Control Values
PHF8(h) = PHF8(h) (Homo sapiens, UniProt Q9UPP1); test: Epigenetic enzyme assay, Demethylases (KDMs); assay type: biochemical; conditions: read-out: % Inhibition of Control Values
CYP2C9 = molecular target: T3, CYP2C9 (Homo sapiens, UniProt P11712); test: Cytochrome P450 Inhibition (CYP panel); assay type: in vitro ADME; conditions: human liver microsomes, probe diclofenac; for inhibition at 10 µM: read-out: % Inhibition of Control Values
T3 construct: Human liver microsomes; from tissue; host or cells: human liver microsomes

SETDB1 (h) = SETDB1 (h) (Homo sapiens, UniProt Q15047); test: Epigenetic enzyme assay, Methyltransferases (MTs); assay type: biochemical; conditions: 10 μM; read-out: % Inhibition of Control Values
[4] = molecular target: PKBbeta/AKT2(h) (substrate histone H3 full length) (Homo sapiens, UniProt P31751); test: Epigenetic enzyme assay, Kinases; assay type: biochemical; conditions: read-out: % Inhibition of Control Values
CREBBP(h) = CREBBP(h) (Homo sapiens, UniProt Q92793); test: Epigenetic enzyme assay, Histone acetyltransferases (HATs); assay type: biochemical; conditions: for inhibition at 10 µM: read-out: % Inhibition of Control Values; for IC50: Table 11, inhibition/concentration-response curve
[5] = LL/2 (Non-Small Cell Lung Cancer)
[6] = NCI-H460 (Non-Small Cell Lung Cancer)
[7] = PC-6 (Non-Small Cell Lung Cancer)

Sequence of NSD1 (h) (Q96L73 whole entry): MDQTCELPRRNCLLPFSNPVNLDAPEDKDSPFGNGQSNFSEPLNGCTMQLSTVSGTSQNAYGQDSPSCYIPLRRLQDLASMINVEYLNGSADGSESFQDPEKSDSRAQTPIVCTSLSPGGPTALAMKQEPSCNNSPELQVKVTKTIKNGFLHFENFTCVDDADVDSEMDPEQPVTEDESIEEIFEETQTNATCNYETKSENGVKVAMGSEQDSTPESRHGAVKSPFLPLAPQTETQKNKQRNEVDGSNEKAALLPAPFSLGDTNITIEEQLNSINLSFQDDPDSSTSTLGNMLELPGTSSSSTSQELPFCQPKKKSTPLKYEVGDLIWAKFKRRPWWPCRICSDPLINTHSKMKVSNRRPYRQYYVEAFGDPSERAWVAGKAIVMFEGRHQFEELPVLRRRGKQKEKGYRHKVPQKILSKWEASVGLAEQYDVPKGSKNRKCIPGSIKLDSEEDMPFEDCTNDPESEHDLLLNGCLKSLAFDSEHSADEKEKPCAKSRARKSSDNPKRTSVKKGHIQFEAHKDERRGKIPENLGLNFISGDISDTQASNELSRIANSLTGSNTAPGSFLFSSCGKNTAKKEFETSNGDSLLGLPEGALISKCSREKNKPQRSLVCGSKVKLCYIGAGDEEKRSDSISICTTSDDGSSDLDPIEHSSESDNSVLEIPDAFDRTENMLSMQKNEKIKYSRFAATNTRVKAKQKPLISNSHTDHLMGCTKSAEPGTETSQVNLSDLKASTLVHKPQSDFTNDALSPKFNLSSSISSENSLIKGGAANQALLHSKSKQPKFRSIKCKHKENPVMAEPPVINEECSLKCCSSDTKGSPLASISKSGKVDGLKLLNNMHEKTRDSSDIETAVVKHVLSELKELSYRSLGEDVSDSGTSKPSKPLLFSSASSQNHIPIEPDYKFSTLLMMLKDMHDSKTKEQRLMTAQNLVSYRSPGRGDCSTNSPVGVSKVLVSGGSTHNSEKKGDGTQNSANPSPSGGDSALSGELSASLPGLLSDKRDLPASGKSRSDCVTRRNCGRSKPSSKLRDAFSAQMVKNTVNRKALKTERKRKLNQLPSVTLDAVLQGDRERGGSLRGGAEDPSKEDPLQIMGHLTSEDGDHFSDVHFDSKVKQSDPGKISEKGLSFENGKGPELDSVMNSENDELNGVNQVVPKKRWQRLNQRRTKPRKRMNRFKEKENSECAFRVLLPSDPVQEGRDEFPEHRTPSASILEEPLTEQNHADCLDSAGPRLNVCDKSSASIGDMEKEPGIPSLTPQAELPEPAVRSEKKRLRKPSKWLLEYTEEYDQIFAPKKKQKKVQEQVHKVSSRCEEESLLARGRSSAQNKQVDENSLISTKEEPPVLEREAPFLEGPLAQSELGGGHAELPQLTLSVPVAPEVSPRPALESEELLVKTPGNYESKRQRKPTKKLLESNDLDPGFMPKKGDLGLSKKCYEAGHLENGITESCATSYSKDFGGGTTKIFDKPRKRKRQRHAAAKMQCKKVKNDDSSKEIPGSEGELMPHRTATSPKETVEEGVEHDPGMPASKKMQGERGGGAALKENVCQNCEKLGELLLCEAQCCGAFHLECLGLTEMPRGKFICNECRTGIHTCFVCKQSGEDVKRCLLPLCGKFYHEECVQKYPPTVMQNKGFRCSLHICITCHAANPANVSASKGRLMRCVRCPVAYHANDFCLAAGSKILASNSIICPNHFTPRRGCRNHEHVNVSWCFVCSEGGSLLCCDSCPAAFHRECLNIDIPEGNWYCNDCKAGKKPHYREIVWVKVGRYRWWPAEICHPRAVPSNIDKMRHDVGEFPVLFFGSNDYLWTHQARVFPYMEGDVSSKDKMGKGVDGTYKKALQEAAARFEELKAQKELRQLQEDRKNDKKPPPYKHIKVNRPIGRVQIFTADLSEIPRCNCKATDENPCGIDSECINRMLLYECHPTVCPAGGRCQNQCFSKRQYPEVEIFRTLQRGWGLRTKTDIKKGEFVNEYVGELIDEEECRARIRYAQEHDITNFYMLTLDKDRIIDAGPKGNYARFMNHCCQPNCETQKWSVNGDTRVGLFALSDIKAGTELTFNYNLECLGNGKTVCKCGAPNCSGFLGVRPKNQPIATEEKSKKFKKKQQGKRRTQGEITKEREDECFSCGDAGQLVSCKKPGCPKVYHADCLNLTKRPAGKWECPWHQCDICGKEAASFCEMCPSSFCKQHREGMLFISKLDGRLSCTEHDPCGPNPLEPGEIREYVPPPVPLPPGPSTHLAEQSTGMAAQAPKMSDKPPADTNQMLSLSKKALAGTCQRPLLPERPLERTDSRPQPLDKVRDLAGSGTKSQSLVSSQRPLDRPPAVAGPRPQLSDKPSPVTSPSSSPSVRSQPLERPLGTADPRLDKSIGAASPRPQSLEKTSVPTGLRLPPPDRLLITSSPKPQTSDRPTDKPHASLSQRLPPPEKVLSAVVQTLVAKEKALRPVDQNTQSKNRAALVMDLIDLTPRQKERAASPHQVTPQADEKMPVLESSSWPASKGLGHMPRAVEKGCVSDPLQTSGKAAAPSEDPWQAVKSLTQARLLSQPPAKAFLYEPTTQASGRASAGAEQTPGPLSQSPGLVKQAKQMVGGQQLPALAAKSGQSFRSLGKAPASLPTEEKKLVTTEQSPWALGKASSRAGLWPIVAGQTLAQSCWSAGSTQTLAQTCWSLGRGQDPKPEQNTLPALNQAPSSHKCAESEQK
T3 sequence (P11712 whole entry): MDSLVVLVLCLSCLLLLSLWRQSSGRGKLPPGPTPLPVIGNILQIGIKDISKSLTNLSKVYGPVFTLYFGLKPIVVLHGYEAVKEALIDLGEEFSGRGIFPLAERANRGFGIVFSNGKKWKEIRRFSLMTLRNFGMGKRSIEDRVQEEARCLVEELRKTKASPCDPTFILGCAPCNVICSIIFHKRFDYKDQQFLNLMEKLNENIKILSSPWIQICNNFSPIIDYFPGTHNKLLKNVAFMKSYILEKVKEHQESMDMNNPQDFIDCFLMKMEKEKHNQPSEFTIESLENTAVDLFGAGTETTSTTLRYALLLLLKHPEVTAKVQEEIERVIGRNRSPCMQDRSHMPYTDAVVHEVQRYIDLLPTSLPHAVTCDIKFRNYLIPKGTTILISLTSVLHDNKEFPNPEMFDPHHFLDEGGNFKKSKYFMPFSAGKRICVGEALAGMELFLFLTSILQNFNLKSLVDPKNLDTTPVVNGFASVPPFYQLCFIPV
Sequence of PHF8(h) (Q9UPP1 whole entry): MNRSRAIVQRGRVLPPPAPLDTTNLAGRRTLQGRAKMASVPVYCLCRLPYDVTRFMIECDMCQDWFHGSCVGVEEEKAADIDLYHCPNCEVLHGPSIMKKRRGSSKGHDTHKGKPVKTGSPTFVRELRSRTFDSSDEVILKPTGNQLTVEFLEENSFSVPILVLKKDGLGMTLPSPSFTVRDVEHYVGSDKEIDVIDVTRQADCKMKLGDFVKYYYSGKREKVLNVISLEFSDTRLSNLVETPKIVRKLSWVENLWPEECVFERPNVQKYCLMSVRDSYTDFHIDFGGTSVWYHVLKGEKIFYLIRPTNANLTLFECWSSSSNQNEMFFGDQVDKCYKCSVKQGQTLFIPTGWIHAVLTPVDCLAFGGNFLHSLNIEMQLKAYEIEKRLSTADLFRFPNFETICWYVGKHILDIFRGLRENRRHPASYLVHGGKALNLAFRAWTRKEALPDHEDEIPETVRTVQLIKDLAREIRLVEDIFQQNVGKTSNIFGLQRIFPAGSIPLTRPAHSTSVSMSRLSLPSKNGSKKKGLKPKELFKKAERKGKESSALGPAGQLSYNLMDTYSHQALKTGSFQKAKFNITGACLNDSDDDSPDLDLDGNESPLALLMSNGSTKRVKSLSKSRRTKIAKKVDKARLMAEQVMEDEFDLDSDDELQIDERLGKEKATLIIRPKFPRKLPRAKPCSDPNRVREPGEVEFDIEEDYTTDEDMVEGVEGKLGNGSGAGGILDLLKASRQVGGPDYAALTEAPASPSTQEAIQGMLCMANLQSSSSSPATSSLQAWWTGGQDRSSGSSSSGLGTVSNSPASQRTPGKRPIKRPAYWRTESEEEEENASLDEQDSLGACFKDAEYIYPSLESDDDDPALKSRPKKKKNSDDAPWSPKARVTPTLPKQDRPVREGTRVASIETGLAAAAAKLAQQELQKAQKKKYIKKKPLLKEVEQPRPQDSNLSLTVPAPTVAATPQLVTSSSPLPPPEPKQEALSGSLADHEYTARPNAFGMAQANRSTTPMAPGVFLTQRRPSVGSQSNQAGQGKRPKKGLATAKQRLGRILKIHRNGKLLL
Sequence of Aurora B (h) (substrate histone H3 full length) (Q96GD4 whole entry): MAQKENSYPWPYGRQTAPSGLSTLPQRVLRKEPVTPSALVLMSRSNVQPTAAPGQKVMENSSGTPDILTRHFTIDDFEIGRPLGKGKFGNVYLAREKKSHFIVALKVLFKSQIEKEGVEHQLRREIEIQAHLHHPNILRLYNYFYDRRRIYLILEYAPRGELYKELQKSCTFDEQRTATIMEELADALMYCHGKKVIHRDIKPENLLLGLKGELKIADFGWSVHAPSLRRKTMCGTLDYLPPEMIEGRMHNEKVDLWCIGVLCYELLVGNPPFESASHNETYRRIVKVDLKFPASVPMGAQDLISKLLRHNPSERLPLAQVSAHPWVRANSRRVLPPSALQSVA
Sequence of PKBbeta/AKT2(h) (substrate histone H3 full length) (P31751 whole entry): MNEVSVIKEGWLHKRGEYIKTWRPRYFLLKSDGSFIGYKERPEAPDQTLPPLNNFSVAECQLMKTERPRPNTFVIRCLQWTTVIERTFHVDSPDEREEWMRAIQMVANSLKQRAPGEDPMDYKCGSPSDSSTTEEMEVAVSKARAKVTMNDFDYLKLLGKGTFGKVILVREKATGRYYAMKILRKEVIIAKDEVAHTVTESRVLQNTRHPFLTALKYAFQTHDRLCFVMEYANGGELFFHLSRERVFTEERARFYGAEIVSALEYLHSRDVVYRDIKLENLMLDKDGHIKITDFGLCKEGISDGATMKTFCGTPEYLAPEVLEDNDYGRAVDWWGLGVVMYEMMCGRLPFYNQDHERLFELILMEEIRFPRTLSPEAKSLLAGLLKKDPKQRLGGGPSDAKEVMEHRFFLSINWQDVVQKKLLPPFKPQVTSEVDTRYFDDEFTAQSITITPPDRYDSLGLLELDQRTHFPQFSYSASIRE

CC(C)=CCC[C@@H]1C(O)Oc2c(C)cc(O)c3c2[C@H]1CC[C@H]3C (stereo partly shown) [Compound 2, 5,18-epoxyserrulat-14-en-8,18-diol]
inhibition at 10 µM (USP 21 (h)): 3% | inhibition at 10 µM (NSD1 (h)): 29% | effect on cell viability ([1]; remaining cell lines (other than HL-60)): no significant effect | % Cell growth ([1]; 4T1 (Breast Cancer)): 60% | % Cell growth ([1]; A375 (Skin)): 74% | % Cell growth ([1]; A-431 (Skin)): 100% | % Cell growth ([1]; A-498 (Kidney Cancer)): 91% | % Cell growth ([1]; ACHN (Kidney Cancer)): 101% | % Cell growth ([1]; B16-F0 (Melanoma)): 123% | % Cell growth ([1]; BT474 (Breast Cancer)): 118% | % Cell growth ([1]; CT26.WT (Colon Cancer)): 120% | % Cell growth ([1]; DLD-1 (Colon Cancer)): 95% | % Cell growth ([1]; H33HJ-JA1 (Lymphoma)): 57% | % Cell growth ([1]; HC-4 (Liver Cancer)): 104% | % Cell growth ([1]; HCT-15 (Colon Cancer)): 94% | % Cell growth ([1]; HCT-116 (Colon Cancer)): 81% | % Cell growth ([1]; HT-29 (Colon Cancer)): 107% | % Cell growth ([1]; Hep3B (Liver Cancer)): 87% | % Cell growth ([1]; HepG2 (Liver Cancer)): 95% | % Cell growth ([1]; K-562 (Leukemia)): 69% | % Cell growth ([1]; KATO III (Stomach)): 84% | % Cell growth [1, 5]: 105% | % Cell growth ([1]; LNCaP (Prostrate Cancer)): 73% | % Cell growth ([1]; MCF7 (Breast Cancer)): 114% | % Cell growth ([1]; MCF-7 AdrR (Breast Cancer)): 92% | % Cell growth ([1]; MDA-MB-231 (Breast Cancer)): 97% | % Cell growth ([1]; MDA-MB-468 (Breast Cancer)): 37% | % Cell growth ([1]; MES-SA (Uterus)): 75% | % Cell growth ([1]; MIA PaCa-2 (Pancreas)): 92% | % Cell growth ([1]; MOLT-4 (Leukemia)): 38% | % Cell growth ([1]; MV-411 (Leukemia)): 37% | % Cell growth [1, 6]: 88% | % Cell growth ([1]; OVCAR-3 (Ovarian Cancer)): 67% | % Cell growth ([1]; PANC-1 (Pancreas)): 87% | % Cell growth ([1]; PC-3 (Prostrate Cancer)): 99% | % Cell growth [1, 7]: 92% | % Cell growth ([1]; Ramos (Lymphoma)): 33% | % Cell growth ([1]; SK-MEL-5 (Melanoma)): 95% | % Cell growth ([1]; SK-N-MC (Brain)): 73% | % Cell growth ([1]; SK-OV-3 (Ovarian Cancer)): 82% | % Cell growth ([1]; SW-620 (Colon Cancer)): 97% | % Cell growth ([1]; T-47D (Breast Cancer)): 104% | % Cell growth ([1]; U937 (Lymphoma)): 102% | % Cell growth ([1]; U-87 MG (Brain)): 101% | inhibition at 10 µM (Sirtuin 7 (h)): -2% | % Control Response [2]: −1% | inhibition at 10 µM (GCN5L2(h)): 5% | inhibition at 10 µM [3]: 4% | inhibition at 10 µM (HDAC5 (h)): -2% | inhibition at 10 µM (PHF8(h)): -11% | inhibition at 1 µM (CYP2C9): 20% | inhibition at 10 µM (CYP2C9): 72% | inhibition at 10 µM (SETDB1 (h)): 43% | inhibition at 10 µM [4]: 11% | inhibition at 10 µM (CREBBP(h)): 78% | IC50 (CREBBP(h)): 6.1 µM

CC(C)=CCC[C@H](CO)[C@@H]1CC[C@@H](C)c2c1cc(C)c(O)c2O [Compound 1, 7,8,18-trihydroxyserrulat-14-ene]
inhibition at 10 µM (USP 21 (h)): -18% | inhibition at 10 µM (NSD1 (h)): 69% | IC50 (NSD1 (h); Table 11, inhibition/concentration-response curve, read-out: IC50): 4.9 µM | reduction in cell viability ([1]; 12 cancer cell lines with moderate reduction): −40 to −80% | reduction in cell viability ([1]; cancer cell lines with potent reduction): −80 to −100% | % Cell growth ([1]; 4T1 (Breast Cancer)): 52% | % Cell growth ([1]; A375 (Skin)): −5% | % Cell growth ([1]; A549/ATCC (Non-Small Cell Lung Cancer)): −92% | % Cell growth ([1]; A-431 (Skin)): −89% | % Cell growth ([1]; A-498 (Kidney Cancer)): −43% | % Cell growth ([1]; ACHN (Kidney Cancer)): −41% | % Cell growth ([1]; B16-F0 (Melanoma)): 7% | % Cell growth ([1]; BT474 (Breast Cancer)): −67% | % Cell growth ([1]; CT26.WT (Colon Cancer)): 2% | % Cell growth ([1]; DLD-1 (Colon Cancer)): −65% | % Cell growth ([1]; H33HJ-JA1 (Lymphoma)): −90% | % Cell growth ([1]; HC-4 (Liver Cancer)): −91% | % Cell growth ([1]; HCT-15 (Colon Cancer)): −62% | % Cell growth ([1]; HCT-116 (Colon Cancer)): −74% | % Cell growth ([1]; HT-29 (Colon Cancer)): −66% | % Cell growth ([1]; Hep3B (Liver Cancer)): −84% | % Cell growth ([1]; HepG2 (Liver Cancer)): −23% | % Cell growth ([1]; K-562 (Leukemia)): −55% | % Cell growth ([1]; KATO III (Stomach)): −91% | % Cell growth [1, 5]: −62% | % Cell growth ([1]; LNCaP (Prostrate Cancer)): −86% | % Cell growth ([1]; MCF7 (Breast Cancer)): −71% | % Cell growth ([1]; MCF-7 AdrR (Breast Cancer)): −90% | % Cell growth ([1]; MDA-MB-231 (Breast Cancer)): −92% | % Cell growth ([1]; MDA-MB-468 (Breast Cancer)): −92% | % Cell growth ([1]; MES-SA (Uterus)): −88% | % Cell growth ([1]; MIA PaCa-2 (Pancreas)): 3% | % Cell growth ([1]; MOLT-4 (Leukemia)): −94% | % Cell growth ([1]; MV-411 (Leukemia)): −96% | % Cell growth [1, 6]: −37% | % Cell growth ([1]; OVCAR-3 (Ovarian Cancer)): −93% | % Cell growth ([1]; PANC-1 (Pancreas)): 36% | % Cell growth ([1]; PC-3 (Prostrate Cancer)): 70% | % Cell growth [1, 7]: −62% | % Cell growth ([1]; Ramos (Lymphoma)): −92% | % Cell growth ([1]; SK-MEL-5 (Melanoma)): −96% | % Cell growth ([1]; SK-N-MC (Brain)): −87% | % Cell growth ([1]; SK-OV-3 (Ovarian Cancer)): −35% | % Cell growth ([1]; SW-620 (Colon Cancer)): −89% | % Cell growth ([1]; T-47D (Breast Cancer)): 20% | % Cell growth ([1]; U937 (Lymphoma)): −86% | % Cell growth ([1]; U-87 MG (Brain)): 7% | inhibition at 10 µM (Sirtuin 7 (h)): 7% | % Control Response [2]: 0% | inhibition at 10 µM (GCN5L2(h)): 11% | inhibition at 10 µM [3]: 6% | inhibition at 10 µM (HDAC5 (h)): -3% | inhibition at 10 µM (PHF8(h)): 36% | inhibition at 1 µM (CYP2C9): 5% | inhibition at 10 µM (CYP2C9): 77% | inhibition at 10 µM (SETDB1 (h)): 53% | inhibition at 10 µM [4]: 13% | inhibition at 10 µM (CREBBP(h)): 74% | IC50 (CREBBP(h)): 3.9 µM
